Values joined by “and” are separate entries in the source; they are usually repeats but may differ in a detail not shown here. Equal entries are not always repeated.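 Grown in 96-well plates, cells were treated for 48 hours with each compound at five concentrations. Insufficient inhibition: endpoint recorded as highest concentration tested. GI50 is the concentration that inhibits growth by half. At the TGI there is no net growth.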
How the values were obtained:
Assay in all cases: NCI anticancer screen, dose series, 48 h
EKVX NSCLC = test system: EKVX NSCLC
HCT-116 colon = test system: HCT-116 colon
HL-60(TB) leukemia = test system: HL-60(TB) leukemia
MDA-MB-231 breast = test system: MDA-MB-231 breast
NCI-H226 lung = test system: NCI-H226 lung
SF-295 CNS = test system: SF-295 CNS
SK-OV-3 ovarian = test system: SK-OV-3 ovarian
SNB-75 CNS = test system: SNB-75 CNS
SR leukemia = test system: SR leukemia
SW-620 colon = test system: SW-620 colon

SMILES | GI50 (EKVX NSCLC) [µM] | TGI (EKVX NSCLC) [µM] | GI50 (HCT-116 colon) [µM] | TGI (HCT-116 colon) [µM] | GI50 (HL-60(TB) leukemia) [µM] | TGI (HL-60(TB) leukemia) [µM] | GI50 (MDA-MB-231 breast) [µM] | TGI (MDA-MB-231 breast) [µM] | GI50 (NCI-H226 lung) [µM] | TGI (NCI-H226 lung) [µM] | GI50 (SF-295 CNS) | TGI (SF-295 CNS) [µM] | GI50 (SK-OV-3 ovarian) [µM] | TGI (SK-OV-3 ovarian) [µM] | GI50 (SNB-75 CNS) [µM] | TGI (SNB-75 CNS) [µM] | GI50 (SR leukemia) [µM] | TGI (SR leukemia) [µM] | GI50 (SW-620 colon) [µM] | TGI (SW-620 colon) [µM]
Cc1cc(C)nc(SC2=C(Nc3cccc(Cl)c3C)C(=O)N(Cc3ccccc3)C2=O)n1 | > 160 | > 160 | > 160 | > 160 | > 160 | > 160 | > 160 | > 160 | > 160 | > 160 | > 160 µM | > 160 | > 160 | > 160 | > 160 | > 160 | > 160 | > 160 | > 160 | > 160
COc1ccc(-c2cc(-c3cc(OC)c(OC)c(OC)c3)c(C#N)c(N3CCOCC3)n2)cc1O | 8.95 | > 100 | 3.36 | > 83.1 | 1.34 | 3.87 | 2.41 | > 93.3 | > 100 | > 100 | 6.38 µM | > 73.8 | 14.8 | > 100 | 2.2 | > 25.6 | 1.1 | > 100 | 3.87 | > 100
CN(C[C@@H]1COCCO1)S(=O)(=O)Nc1ccc2ccc3ncc(-c4cnn(C)c4)cc3c(=O)c2c1 | 19.1 | > 100 | 3.87 | > 100 | 6.77 | > 100 | 7.76 | > 100 | 2.62 | > 100 | 0.632 µM | > 34.2 | 3.04 | > 100 | 1.6 | > 27.4 | 3.05 | > 100 | 4.74 | > 100
CCOC(=O)c1cc2c(n1Cc1ccccc1)-c1oncc1CC2 | 5.65 | 49.5 | 3.45 | 13.7 | 2.4 | 6.59 | 5.66 | 57.1 | 10.7 | > 100 | 2.89 µM | 11.1 | 7.07 | 93.1 | 4.68 | > 100 | 2.56 | 15.5 | 3.48 | > 100
NC(=O)/C=C/NC(=O)/C=N\O | – | > 100 | – | > 100 | – | > 100 | – | > 100 | – | > 100 | – | > 100 | – | > 100 | – | > 100 | – | > 100 | – | > 100
Nc1nc(N)c2nc(CNc3ccc(C(=O)NC(CCCNC(=O)c4ccccc4C(=O)O)C(=O)O)cc3)cnc2n1 (configuration not stated) | – | > 100 | 0.00028 | > 100 | 0.00049 | > 100 | – | > 100 | > 100 | > 100 | < 0.01 µM and 0.00332 µM | – | – | – | – | > 100 | 0.000424 | > 100 | 0.000866 | > 100
N[C@@H]1CCCN(c2c(/C=C3\SC(=O)NC3=O)cccc2-c2ccccc2)C1 | – | – | 13.1 | 26.9 | 17.8 | 42.6 | 7.77 | 23.1 | 12.8 | 36.9 | 3.57 µM | 15.9 | 15.5 | 35 | 3.31 | 17.5 | 4.64 | 26.2 | 12.8 | 28.3

From PubChem BioAssay (NCI)
